Test results from patent US6939716B2, “Method for detecting conditions indicative of sepsis” (Washington University, priority 2001, dated 2005).
“Also recorded” adds a separate entry of the source.

Key:
[1] = tested on: Klebsiella pneumoniae; experiment: Bacterial killing by myeloperoxidase; assay type: cell-based
Description: Bacterial killing. The bactericidal activity of myeloperoxidase was quantified by conventional procedures as described previously (ref. 27). Briefly, Klebsiella pneumoniae were cultured in Luria-Bertani broth to mid-log growth phase, washed with PBS, and used at 10^9 bacteria/mL. Bacteria were incubated with 5 nM enzyme, 5 nM H2O2, and 100 mM NaCl in PBS (pH 5.5) for 15 min at 37° C. Serial dilutions were immediately spread on agar plates and the colony forming units determined after overnight incubation at 37° C.

[2] = Generation of N-acetyl-L-3-bromotyrosine by the HOCl-Cl^−-Br^− system (reverse-phase HPLC)
Description: Reaction conditions. Reactions were carried out for 60 min at 37° C. in buffer A (100 mM NaCl, 50 mM sodium phosphate, 100 μM diethylenetriaminepentaacetic acid (DTPA)) supplemented with 1 mM N-acetyl-L-tyrosine and either 50 μM hypohalous acid or 3 nM peroxidase and 50 μM H2O2. Buffer A was passed over a Chelex resin column prior to use to remove redox active transition metal ions. Reactions were initiated by the addition of oxidant and terminated with 0.1 mM methionine. Reverse-phase HPLC analyses of halogenated amino acids. Analyses were performed using a flow rate of 1 mL/min and an Ultrasphere ODS reverse-phase column (4.6 mm×25 cm; 5 μm; Beckman Instruments; Berkeley, Calif.) coupled to a Waters 484 Tunable Absorbance Detector with monitoring at 275 nm. Solvent A was 0.1% trifluoroacetic acid (TFA, pH 2.5), and solvent B was 0.1% TFA in methanol (pH 2.5). The gradient profile was: isocratic elution at 66:34 (v/v) A:B over 2.1 min; linear increase of B from 34% to 40% over 30 min; isocratic elution at 60:40 A:B for 3 min; increase of B from 40% to 100% over 2 min; and isocratic elution at 100% B for 3 min. Products were quantified using integrated peak areas by comparison to standard curves of authentic N-Ac-chlorotyrosine and N-Ac-bromotyrosine.

[3] = molecular target: T1, myeloperoxidase (Homo sapiens, UniProt P05164); experiment: Generation of N-acetyl-L-3-bromotyrosine by the myeloperoxidase-H2O2-Cl^−-Br^− system (reverse-phase HPLC); assay type: biochemical; conditions: for effect on bromination of N-acetyl-L-tyrosine by myeloperoxidase: acidic (pH 5.9) and neutral conditions; for effect on bromination by the myeloperoxidase-H2O2-Cl^−-Br^− system: mildly acidic conditions (pH 5.9)
T1 construct: endogenous in cells; host or cells: HL60 cells (endogenous enzyme, purified in house)
T1 sequence (P05164 49-745): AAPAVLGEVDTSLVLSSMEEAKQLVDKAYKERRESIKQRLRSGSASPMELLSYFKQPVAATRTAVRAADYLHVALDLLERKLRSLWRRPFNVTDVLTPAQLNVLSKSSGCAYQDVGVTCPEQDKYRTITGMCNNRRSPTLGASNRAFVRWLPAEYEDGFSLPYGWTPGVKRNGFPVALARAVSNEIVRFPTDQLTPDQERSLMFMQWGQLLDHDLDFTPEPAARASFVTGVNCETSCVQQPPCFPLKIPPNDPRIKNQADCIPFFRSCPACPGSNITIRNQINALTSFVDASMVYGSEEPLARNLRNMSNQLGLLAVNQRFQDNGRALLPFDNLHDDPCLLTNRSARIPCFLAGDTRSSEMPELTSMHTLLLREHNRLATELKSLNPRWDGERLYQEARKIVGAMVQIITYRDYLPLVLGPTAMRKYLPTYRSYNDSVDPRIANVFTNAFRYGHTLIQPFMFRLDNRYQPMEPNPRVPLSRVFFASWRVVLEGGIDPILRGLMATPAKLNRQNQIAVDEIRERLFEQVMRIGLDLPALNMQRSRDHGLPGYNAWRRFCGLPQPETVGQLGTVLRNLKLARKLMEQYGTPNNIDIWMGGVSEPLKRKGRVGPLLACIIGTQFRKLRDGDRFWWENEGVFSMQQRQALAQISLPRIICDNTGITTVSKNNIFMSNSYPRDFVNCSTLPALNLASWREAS
Description: (§1) General procedures. Myeloperoxidase was purified from HL60 cells (ref. 19). Enzyme was apparently pure as assessed by its absorption spectrum (A430/A280 ratio>0.8), SDS-PAGE, and peroxidase activity gel electrophoresis (ref. 20). Porcine eosinophil peroxidase (A415/A280>0.9) was from ExOxEmis (Little Rock, Ark.). Chloride-free NaOCl and HOBr were prepared by conventional procedures as described previously (refs. 21,22). Peritoneal white blood cells were elicited with intraperitoneal (i.p.) injection of 4% thioglycollate and harvested 24 h after injection (ref. 23). SDS-PAGE was performed using 10% Bis-Tris NuPAGE gels (Invitrogen; Carlsbad, Calif.). The separated proteins were transferred onto a nitrocellulose membrane, which was blocked overnight at 4° C. with 5% milk and 0.05% Tween-20 in phosphate-buffered saline (PBS; 10 mM phosphate, 138 mM NaCl, 2.7 mM KCl, pH 7.4). The blot was then incubated (1 h) with rabbit anti-mouse myeloperoxidase antibody (1:1,000) followed by goat anti-rabbit immunoglobulin antibody (1:10,000; Santa Cruz Biotechnology; Santa Cruz, Calif.) conjugated with horseradish peroxidase. West Pico chemiluminescent substrate (Pierce; Rockford, Ill.) was added, and the membrane was exposed to autoradiography film and developed.
Reaction conditions. Reactions were carried out for 60 min at 37° C. in buffer A (100 mM NaCl, 50 mM sodium phosphate, 100 μM diethylenetriaminepentaacetic acid (DTPA)) supplemented with 1 mM N-acetyl-L-tyrosine and either 50 μM hypohalous acid or 3 nM peroxidase and 50 μM H2O2. Buffer A was passed over a Chelex resin column prior to use to remove redox active transition metal ions. Reactions were initiated by the addition of oxidant and terminated with 0.1 mM methionine.
Reverse-phase HPLC analyses of halogenated amino acids. Analyses were performed using a flow rate of 1 mL/min and an Ultrasphere ODS reverse-phase column (4.6 mm×25 cm; 5 μm; Beckman Instruments; Berkeley, Calif.) coupled to a Waters 484 Tunable Absorbance Detector with monitoring at 275 nm. Solvent A was 0.1% trifluoroacetic acid (TFA, pH 2.5), and solvent B was 0.1% TFA in methanol (pH 2.5). The gradient profile was: isocratic elution at 66:34 (v/v) A:B over 2.1 min; linear increase of B from 34% to 40% over 30 min; isocratic elution at 60:40 A:B for 3 min; increase of B from 40% to 100% over 2 min; and isocratic elution at 100% B for 3 min. Products were quantified using integrated peak areas by comparison to standard curves of authentic N-Ac-chlorotyrosine and N-Ac-bromotyrosine.

[4] = molecular target: T2, eosinophil peroxidase (Sus scrofa, UniProt P80550); experiment: Generation of N-acetyl-L-3-bromotyrosine by the eosinophil peroxidase-H2O2-Cl^−-Br^− system (reverse-phase HPLC); assay type: biochemical, Porcine
T2 construct: purchased ExOxEmis (Little Rock, Ark.)
T2 sequence (P80550 143-704): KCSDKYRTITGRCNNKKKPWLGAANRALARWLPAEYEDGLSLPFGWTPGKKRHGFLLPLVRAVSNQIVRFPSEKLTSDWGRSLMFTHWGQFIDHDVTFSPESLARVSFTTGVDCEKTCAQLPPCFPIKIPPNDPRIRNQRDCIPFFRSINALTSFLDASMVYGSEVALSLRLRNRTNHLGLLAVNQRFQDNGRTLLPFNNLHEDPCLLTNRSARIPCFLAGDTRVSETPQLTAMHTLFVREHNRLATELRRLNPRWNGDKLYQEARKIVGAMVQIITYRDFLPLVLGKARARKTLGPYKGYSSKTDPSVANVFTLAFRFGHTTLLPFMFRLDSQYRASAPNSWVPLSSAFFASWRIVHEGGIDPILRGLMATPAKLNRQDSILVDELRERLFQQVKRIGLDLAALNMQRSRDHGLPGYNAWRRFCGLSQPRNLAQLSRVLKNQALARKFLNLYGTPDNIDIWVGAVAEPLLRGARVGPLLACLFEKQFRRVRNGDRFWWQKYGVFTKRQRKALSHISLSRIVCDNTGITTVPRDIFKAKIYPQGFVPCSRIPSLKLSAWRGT
Description: as §1, with “The blot was then incubated (1 h) with rabbit anti-mouse myeloperoxidase antibody (1:1,000) followed by goat anti-rabbit immunoglobulin antibody (1:10,000; Santa Cruz Biotechnology; Santa Cruz, Calif.) conjugated with horseradish peroxidase. West Pico chemiluminescent substrate (Pierce; Rockford, Ill.) was added, and the membrane was exposed to autoradiography film and developed.” left out
Reverse-phase HPLC analyses of halogenated amino acids. Analyses were performed using a flow rate of 1 mL/min and an Ultrasphere ODS reverse-phase column (4.6 mm×25 cm; 5 μm; Beckman Instruments; Berkeley, Calif.) coupled to a Waters 484 Tunable Absorbance Detector with monitoring at 275 nm. […] Products were quantified using integrated peak areas by comparison to standard curves of authentic N-Ac-chlorotyrosine and N-Ac-bromotyrosine.

[5] = mildly acidic conditions (pH 5.9)
[6] = neutral conditions (pH 7), taurine 200 μM

Br [Br^−, bromide]
bacteria killing (dead) ([1]; 1 μM Br added to the complete myeloperoxidase-H2O2-Cl^− system): 72%
effect on bacteria killing ([1]; 10 μM Br^− added to the complete myeloperoxidase-H2O2-Cl^− system): completely inhibitory

NCCS(=O)(=O)O [taurine]
effect on formation of N-acetyl-L-3-bromotyrosine by the HOCl-Cl^−-Br^− system [2, 5]: inhibited
effect on formation of N-acetyl-L-3-bromotyrosine by the HOCl-Cl^−-Br^− system [2, 6]: completely inhibited
effect on bromination of N-acetyl-L-tyrosine by myeloperoxidase [3]: inhibited
effect on bromination by the myeloperoxidase-H2O2-Cl^−-Br^− system [3]: almost completely inhibited
effect on bromination by the myeloperoxidase-H2O2-Cl^−-Br^− system ([3]; listed as Taurine): inhibited
effect on N-acetyl-L-3-bromotyrosine formation by the myeloperoxidase-H2O2-Cl^−-Br^− system [3, 6]: only partially inhibited; also recorded: only partly inhibited
effect on production of N-acetyl-L-3-bromotyrosine by the eosinophil peroxidase-H2O2-Cl^−-Br^− system [4, 5]: failed to affect
effect on N-acetyl-L-3-bromotyrosine formation by the eosinophil peroxidase-H2O2-Cl^−-Br^− system [4, 6]: little affect

B1: catalase: a peroxide scavenger (protein, UniProt P04040 2-527, looked up)
Catalase: ADSRDPASDQMQHWKEQRAAQKADVLTTGAGNPVGDKLNVITVGPRGPLLVQDVVFTDEMAHFDRERIPERVVHAKGAGAFGYFEVTHDITKYSKAKVFEHIGKKTPIAVRFSTVAGESGSADTVRDPRGFAVKFYTEDGNWDLVGNNTPIFFIRDPILFPSFIHSQKRNPQTHLKDPDMVWDFWSLRPESLHQVSFLFSDRGIPDGHRHMNGYGSHTFKLVNANGEAVYCKFHYKTDQGIKNLSVEDAARLSQEDPDYGIRDLFNAIATGKYPSWTFYIQVMTFNQAETFPFNPFDLTKVWPHKDYPLIPVGKLVLNRNPVNYFAEVEQIAFDPSNMPPGIEASPDKMLQGRLFAYPDTHRHRLGPNYLHIPVNCPYRARVANYQRDGPMCMQDNQGGAPNYYPNSFGAPEQQPSALEHSIQYSGEVRRFNTANDDNVTQVRAFYVNVLNEEQRKRLCENIAGHLKDAQIFIQKKAVKNFTEVHPDYGSHIQALLDKYNAEKPKNAIHTFVQSGSHLAAREKANL
effect on bromination of N-acetyl-L-tyrosine by myeloperoxidase [3]: inhibited
